Data published in ChEMBL document CHEMBL1131537, “Synthesis of [(2'S, 3'S)-bis(hydroxylmethyl)pyrrolidin-1-yl] purine and pyrimidine nucleosides as potential antiviral agents” (Bioorg Med Chem Lett, 1998).
The source made the active and inactive calls.

Tests used:
Type in all cases: functional, cell-based
[1] = test system: MT4; experiment: […] was evaluated against HIV-1 in MT-4 cells at concentration up to 10 ug/mL by indirect immunofluorescence assay; Inactive; conditions: Homo sapiens
[2] = test system: Vero; experiment: Antiviral activity was evaluated against HSV-1 in Vero cells at concentration up to 10 ug/mL by plaque reduction assay; Inactive; conditions: Chlorocebus sabaeus
[3] = test system: Vero; experiment: Antiviral activity was evaluated against HSV-2 in Vero cells at concentration up to 10 ug/mL by plaque reduction assay; Inactive; conditions: Chlorocebus sabaeus

Measured: Activity

Cc1cn(N2CC[C@H](CO)[C@H]2CO)c(=O)[nH]c1=O
inactive: [1] | [2] | [3]

Nc1ncnc2c1ncn2N1CC[C@H](CO)[C@H]1CO
inactive: [1] | [2] | [3]
